Where two headings read alike, the source gives them in different places.
What was measured:
[1] = Temperature stability studies of bendamustine; format: physicochemical
Experimental: Temperature stability studies of bendamustine were conducted with treatment of bendamustine at given temperatures for 10 minutes.

[2] = Compatibility studies of bendamustine with excipients (1:1 binary mixtures); format: physicochemical; conditions: for Total impurities %: open container, one month
Experimental: Compatibility studies of bendamustine with different excipients used in hot melt extrusion process were realised with incubation of 1:1 (w/w) binary mixtures of these excipients with bendamustine at 40° C. 75% RH in an open container for one month.

[3] = Rat studies to determine oral bioavailability of bendamustine; conditions: male, Sprague-Dawley, in vivo; for AUC(0-inf): read-out: mean AUC0-∞
Experimental: Rat studies were carried out with the extrudate to determine the oral bioavailability of bendamustine. For this purpose 3 mg/kg bendamustine was applied parenterally to 3 animals and samples were taken at 0, 0.083, 0.25, 0.5, 1, 2, 4, 8 hours and analyzed with a validated HPLC/MS method. Furthermore extrudates of the invention were applied orally to 9 rats with a bendamustine concentration of 10.8 mg/kg. Samples were taken at 0, 0.25, 0.5, 1, 2, 4, 6, 8 hours and analyzed with a validated HPLC/MS method

[4] = mice; cited from earlier work

## Cn1c(CCCC(=O)O)nc2cc(N(CCCl)CCCl)ccc21 [bendamustine, 4-[5-[Bis(2-chloroethyl)amino]-1-methylbenzimidazol-2-yl]butanoic acid]
[1]; 70 ° C. for 10 minutes
  Assay %: 101.75%
  Total Impurity %: 0.7%
[1]; 100 ° C. for 10 minutes
  Assay %: 99.216%
  Total Impurity %: 0.8%
[1]; 120 ° C. for 10 minutes
  Assay %: 97.732%
  Total Impurity %: 1.3%
[2]; 1:1 (w/w) mixture with Ascorbic acid, 40° C. 75% RH
  Total impurities %: 0.121%
[2]; 1:1 (w/w) mixture with Citric acid, 40° C. 75% RH
  Total impurities %: 0.098%
[2]; 1:1 (w/w) mixture with Ditert butyl methyl phenol, 40° C. 75% RH
  Total impurities %: 0.258%
[2]; 1:1 (w/w) mixture with Eudragit ® EPO, 40° C. 75% RH
  Total impurities %: 0.154%
[2]; 1:1 (w/w) mixture with Kollidone VA64, 40° C. 75% RH
  Total impurities %: 0.091%
[2]; 1:1 (w/w) mixture with PEG 1000, 40° C. 75% RH
  Total impurities %: 0.326%
[2]; 1:1 (w/w) mixture with PEG 2000, 40° C. 75% RH
  Total impurities %: 0.229%
[2]; 1:1 (w/w) mixture with Plasdone K12, 40° C. 75% RH
  Total impurities %: 0.124%
[2]; 1:1 (w/w) mixture with Soluplus, 40° C. 75% RH
  Total impurities %: 0.118%
[2]; 1:1 (w/w) mixture with Vit E acetate, 40° C. 75% RH
  Total impurities %: 0.101%
[2]; with large amounts of PEG 2000, PEG 1000 and Diter butyl methyl phenol, 40° C. 75% RH
  Compatibility with excipients: incompatibility
[3]; iv, 3 mg/kg
  bioavailability: 100%
  AUC(0-inf): 675 ng·h/mL
[3]; po, 10 mg/kg
  bioavailability: 33%
  AUC(0-inf): 742 ng·h/mL
[4]
  oral bioavailability: 40%

Reference: patent publication US20150050210A1 (priority 2012, published 2015)
